The test system of this series is Kinetic aqueous solubility, PBS pH 7.4, LC-UV/MS. Kind of series: Inhibitors of Cruzain: Aqueous Profiling Assay. The source says: Chagas Disease is a neglected tropical disease that affects over 16 million people in Latin America. The cysteine protease cruzain is essential for the survival Trypanosoma cruzi, the parasitic agent responsible for Chagas disease. Potential intervention for T. cruzi includes the inhibition of cruzain. This bioassay will summarize the ongoing development of small molecule cruzain inhbitiors. Currently, a screen of ~200k compounds and through extensive follow-up work a probe was identified. To further characterize the probe, it was tested in in vitro ADME assays. This bioassay provides profiling data on aqueous kinetic solubility (PBS @ pH 7.4), an important measure that affects in vivo bioavailability. NIH Chemical Genomics Center [NCGC] NIH Molecular Libraries Probe Production Centers Network [MLPCN] MLSCN Grant: DA024891-01 PI Name: Dr. Brian Shoichet; University of California, San Francisco
1. 8ul of reference and test compound stock solution were added to 392ul 100mM phosphate buffer (pH 7.4) 2. Sample tubes were shaken for 1 hr (1000 rpm) at room temperature 3. Samples were centrifuged (10 min at 12000 rpm) to precipitate un-dissolved particles 4. Supernatants were transferred to new tubes 5. Concentration of the supernatant was determined by LC-UV or LC-MS/MS

≈ marks a conversion by molar mass, not a printed value.

As to `Cc1ccc(OCCn2c(CCNC(=O)C3CCCCC3)nc3ccccc32)cc1`, the solubility (as a rule, how much of the substance goes into solution per volume) is 5 µM (≈ 2.03 µg/mL).
